According to patent publication US12391657B2, “Small molecules that bind and/or modulate differentforms of tau oligomers” (The Board of Regents of the University of Texas System, priority 2019, dated 2025):
Entries after “also recorded” stand apart in the source; their conditions may differ.

Tests used:
[1] = system: SH-SY5Y human neuroblastoma cells; experiment: MTT viability of SH-SY5Y cells exposed to TauO pre-incubated with compound; type: cell-based; conditions: 2 μM TauO; curcumin final concentration 10 μM
Description: Human neuroblastoma SH-SY5Y cells were maintained in Dulbecco's modified Eagle's medium (DMEM) and grown to confluence in 96-well plates. […] Cells viability was corrected by the vehicle background. All measurements were performed in triplicate. The cytotoxic effect was determined using 3-(4,5-dimethylthiazol-2-yl)-2,5-diphenyltetrazolium bromide (MTT) assay for assessing cell viability following manufacturers' instructions. Optical density (OD) was measured at 490 nm with POLARstar OMEGA plate reader (BMG Labtechnologies). Cell viability was calculated as the percentage of the OD value of treated cells compared with untreated controls, according to the following equation: Viability=(OD SAMPLE/OD CONTROL)×100. […]
Human neuroblastoma SH-SY5Y cells were maintained in Dulbecco's modified Eagle's medium (DMEM) and grown to confluence in 96-well plates. […] The cytotoxic effect was determined using 3-(4,5-dimethylthiazol-2-yl)-2,5-diphenyltetrazolium bromide (MTT) assay for assessing cell viability following manufacturer's instructions. Optical density (OD) was measured at 490 nm with POLARstar OMEGA plate reader (BMG Labtechnologies). Cell viability was calculated as the percentage of the OD value of treated cells compared with untreated controls, according to the following equation: Viability=(OD SAMPLE/OD CONTROL)×100. […]

[2] = target: T1, recombinant tau oligomers (TauO) (Homo sapiens, UniProt P10636); experiment: Western blot of recombinant tau oligomers with and without compounds; type: biochemical; conditions: curcumin 5× and 10×, oligomerization conditions
T1 construct: made in house
T1 sequence (P10636 1-441 isoform P10636-8): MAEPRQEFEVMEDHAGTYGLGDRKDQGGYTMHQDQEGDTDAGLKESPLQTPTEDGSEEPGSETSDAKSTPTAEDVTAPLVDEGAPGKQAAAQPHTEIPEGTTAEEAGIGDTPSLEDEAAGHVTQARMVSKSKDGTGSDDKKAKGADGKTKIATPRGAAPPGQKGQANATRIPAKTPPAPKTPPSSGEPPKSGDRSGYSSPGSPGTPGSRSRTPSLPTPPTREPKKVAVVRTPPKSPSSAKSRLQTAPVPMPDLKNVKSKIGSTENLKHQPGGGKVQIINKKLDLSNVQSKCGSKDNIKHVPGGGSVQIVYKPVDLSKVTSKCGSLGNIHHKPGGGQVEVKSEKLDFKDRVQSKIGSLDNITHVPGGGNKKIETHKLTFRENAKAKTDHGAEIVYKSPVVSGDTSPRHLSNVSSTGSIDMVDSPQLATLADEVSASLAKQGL
Description: Pre-cast NuPAGE 4-12% Bis-Tris Gels for SDS-PAGE (Introvigen) were loaded with 3 μg of recombinant tau for each sample per well along with molecular weight marker. After being separated by electrophoresis, proteins were transferred to nitrocellulose membranes. Membranes were then blocked with 10% nonfat milk in Tris-buffered saline with very low tween 0.01% (TBS-T) overnight at 4° C. The next day membranes were probed with T22 (1:250) for tau oligomers and tau5 (1:10000) for total tau, diluted in 5% nonfat milk for 1 hour at RT. Membranes were then incubated with horseradish peroxidase-conjugated IgG anti-rabbit (1:10000) and anti-mouse (1:10000) secondary antibodies to detect, T22 and Tau5, respectively. ECL plus (GE Healthcare) was used for signal detection. Densitometric analysis of each band was quantified using Image J and analyzed by one-way ANOVA.
Recombinant tau protein (tau-441 (2N4R) MW 45.9 kDa) was expressed and purified as described (Margittai and Langen 2004, Margittai and Langen 2006). The tau pellet was treated with 8M urea followed by overnight dialysis against 1× phosphate-buffered saline (PBS) pH 7.4. Tau concentration was measured using bicinchoninic acid protein assay (Micro BCA kit, Pierce) and normalized to 1 mg/ml by adding 1× PBS. Aliquots of tau monomer in PBS were stored at −20° C. […]

[3] = target: T1, recombinant tau oligomers (TauO); experiment: Dot blot of recombinant tau oligomers with and without compounds; type: biochemical; conditions: curcumin
Description: The dot blot assay was performed as previously described (Lasagna-Reeves, Castillo-Carranza et al. 2010), to detect tau oligomers in the absence and presence of small molecules. Briefly, 1.5 μl of each end-product reaction was applied onto nitrocellulose membranes and then blocked with 10% nonfat milk in TBS-T overnight at 4° C. Next day, membranes were probed with T22 (1:250) for immunoreactivity with tau oligomers and Tau5 (1:10000) for total tau, diluted in 5% nonfat milk for 1 hour at RT. Membranes were then washed three time with TBS-T and incubated with horseradish peroxidase-conjugated IgG anti-rabbit (1:10000) and anti-mouse (1:10000) secondary antibodies to detect, T22 and Tau5, respectively. Blots were then washed three times in TBS-T and exposed to ECL plus (GE Healthcare) was used for signal detection. Densitometric analysis of each band was quantified using Image J.
Compounds were dissolved in ETOH 75%/DMSO (5:1) at a final concentration of 5 mM and diluted in 1× PBS or ddH2O for incubation or toxicity assay (final concentration 5 μM). […]
Densitometric analysis of each band was quantified using Image J and analyzed by two-way ANOVA followed by Dunnett's multiple comparisons test, performed using GraphPad Prism 6.01.

[4] = in vivo; cited from earlier work

Question: Which results are given for `COc1cc(/C=C/C(=O)CC(=O)/C=C/c2ccc(O)c(OC)c2)ccc1O` [curcumin]?
Answer: viability of SH-SY5Y cells exposed to TauO pre-incubated with curcumin [1]: significantly higher cells viability when compared to TauO alone; also recorded: rescued cells from TauO-induced toxicity; aggregation state of preformed tau oligomers, Western blot (T22, Tau 5, Tau 13) [2]: promoting the formation of larger tau aggregates; aggregation state of preformed tau oligomers, Western blot (T22, Tau 5, Tau 13) ([2]; listed as Curcumin): alters the aggregation states of preformed tau oligomers; oligomeric tau level, dot blot [3]: decreased levels of oligomeric tau; also recorded: significant decrease in oligomers; bioavailability [4]: low brain bioavailability following oral administration
